# From patent publication US11964950B2, “Arylamide derivative having antitumor activity” (priority 2020, dated 2024)
# What was measured:
# [1] = test system: A549 human lung cancer cells; experiment: Cell proliferation-inhibiting activity, A549 (CellTiter-Glo, ATP in viable cells); assay type: cell-based; details: A549, 96 h, Table 3, 4 days culture
# Experimental: (§1) The cell proliferation-inhibiting activity of the compounds listed in Table 3 below was evaluated by measuring the amount of ATP in viable cells as described below.
# (§2) The test compound was serially diluted with DMSO and then diluted 25-fold with Ca^2+, Mg^2+-free phosphate-buffered saline, and was then dispensed into a 96-well plate at 5 μL per well. A cell suspension containing the below indicated concentration of A549, Calu-6 or NCI-H2122 human lung cancer cells (all obtained from ATCC) was prepared using the below indicated medium with the addition of 10% fetal bovine serum (Sigma). The cell suspension was dispensed into the test compound-added plate at 95 μL per well and cultured in a 5% carbon dioxide gas incubator at 37° C. After 4 days, 80 μL of CellTiter-Glo (registered trademark) (Promega Corp.) was added to each well and the bioluminescence was measured with a fluorescent plate reader.
# A549: Dulbecco's Modified Eagle's Medium (Sigma); 2000 cells/95 μL
# [2] = test system: Calu-6 human lung cancer cells; experiment: Cell proliferation-inhibiting activity, Calu-6 (CellTiter-Glo, ATP in viable cells); assay type: cell-based; details: Calu-6, 96 h, Table 3, 4 days culture
# Experimental: as §1, §2
# Calu-6: Eagle's Minimum Essential Medium (Sigma); 4000 cells/95 μL
# [3] = test system: NCI-H2122 human lung cancer cells; experiment: Cell proliferation-inhibiting activity, NCI-H2122 (CellTiter-Glo, ATP in viable cells); assay type: cell-based; details: NCI-H2122, 96 h, Table 3, 4 days culture
# Experimental: as §1, §2
# [4] = Human liver microsome stability; assay type: in vitro ADME; details: NADPH, 37° C.; for CLint: hepatic intrinsic clearance, human liver microsomes; for microsomal CLint at 0.99 µM: human liver microsomes (XENOTECH), pH 7.4, hepatic intrinsic clearance
# Experimental: There were dispensed 400 μL of 1 mg/mL human liver microsomes (XENOTECH)/0.1 M potassium phosphate buffer (pH 7.4) into each well of a 96-well plate. A DMSO solution (4 μL) of 200 μM test compound was then added, and incubation was conducted until reaching 37° C. To this reaction mixture (200 μL) there was added a solution (200 μL) containing 2 mM NADPH (ORIENTAL YEAST)/0.1 M potassium phosphate buffer (pH 7.4) that had been incubated at 37° C. At 0 min, 5 min, 15 min or 30 min after addition, the reaction mixture (50 μL) was added to acetonitrile (100 μL) to stop the metabolic reaction. After the metabolic reaction was stopped, a 1 μM warfarin aqueous solution (50 μL) was added to each reaction mixture as an internal standard. The reaction mixture was filtered and analyzed by LC/MS/MS (LC: NEXERA by Shimadzu; MS: 4000Q trap by ABSciex; column: Ascentis Express C18 HPLC column (5 cm×2.1 mm, 2.7 μm); ionization method: electrospray ionization). The percent remaining relative to the amount of test compound at 0 min was calculated from the obtained peak area ratio of the test compound to internal standard. The elimination rate constant (ke) was calculated from the incubation time and percent remaining using the primary elimination rate equation, and the hepatic intrinsic clearance (CLint) was calculated using the formula shown below. CLint (μL/min/mg)=ke (min^−1)/human liver microsome concentration (mg protein/μL)
CLint [4],SMILES,IC50 [1],IC50 [2],IC50 [3],microsomal CLint at 0.99 µM [4]
,"CNS(=O)(=O)Nc1nccc(Cc2cc(C(=O)NC3CC3)c(Nc3ccc(C4CC4)cc3F)c(F)c2F)c1F [G-1, N-Cyclopropyl-2-(4-cyclopropyl-2-fluoroanilino)-3,4-difluoro-5-[[3-fluoro-2-(methylsulfamoylamino)pyridin-4-yl]methyl]benzamide]",21 nM,65 nM,6 nM,
,"CNS(=O)(=O)Nc1nccc(Cc2cc(C(N)=O)c(Nc3ccc4sccc4c3F)c(F)c2F)c1F [H-3, 3,4-difluoro-2-[(4-fluoro-1-benzothiophen-5-yl)amino]-5-[[3-fluoro-2-(methylsulfamoylamino)pyridin-4-yl]methyl]benzamide]",5 nM,,1 nM,
<1 µL/min/mg,"CC1(NS(=O)(=O)Nc2nccc(Cc3cc(C(N)=O)c(Nc4ccc(I)cc4F)c(F)c3F)c2F)CC1 [A-23, 3,4-Difluoro-2-(2-fluoro-4-iodoanilino)-5-[[3-fluoro-2-[(1-methylcyclopropyl)sulfamoylamino]pyridin-4-yl]methyl]benzamide]",,,,
,"CNS(=O)(=O)Nc1cccc(Cc2cc(C(=O)NC3CC3)c(Nc3ccc(C4CC4)cc3F)c(F)c2F)c1F [D-15, N-Cyclopropyl-2-(4-cyclopropyl-2-fluoroanilino)-3,4-difluoro-5-[[2-fluoro-3-(methylsulfamoylamino)phenyl]methyl]benzamide]",,118 nM,11 nM,
,"CNS(=O)(=O)Nc1nccc(Cc2cc(C(=O)NC3CC3)c(Nc3ccc(I)cc3F)c(F)c2F)c1F [A-2, N-cyclopropyl-3,4-difluoro-2-(2-fluoro-4-iodoanilino)-5-[[3-fluoro-2-(methylsulfamoylamino)pyridin-4-yl]methyl]benzamide]",1 nM,2 nM,0.1 nM,
,"NC(=O)c1cc(Cc2ccnc(NS(=O)(=O)NC3CC3)c2F)c(F)cc1Nc1ccc(I)cc1F [1-3, 5-[[2-(Cyclopropylsulfamoylamino)-3-fluoropyridin-4-yl]methyl]-4-fluoro-2-(2-fluoro-4-iodoanilino)benzamide]",32 nM,120 nM,21 nM,
,"CS(=O)(=O)Nc1cccc(Cc2cc(C(=O)NC3CC3)c(Nc3ccc(I)cc3F)c(F)c2F)c1F [E-25, N-Cyclopropyl-3,4-difluoro-2-(2-fluoro-4-iodoanilino)-5-[[2-fluoro-3-(methanesulfonamide)phenyl]methyl]benzamide]",,,,8 µL/min/mg
<1 µL/min/mg,"CC1(S(=O)(=O)Nc2cccc(Cc3cc(C(N)=O)c(Nc4ccc(I)cc4F)c(F)c3F)c2F)CC1 [E-16, 3,4-Difluoro-2-(2-fluoro-4-iodoanilino)-5-[[2-fluoro-3-[(1-methylcyclopropyl)sulfonylamino]phenyl]methyl]benzamide]",,,,
,"CNS(=O)(=O)Nc1nccc(Cc2cc(C(N)=O)c(Nc3ccc(C4CC4)cc3F)n(C)c2=O)c1F [J-3, 2-(4-Cyclopropyl-2-fluoroanilino)-5-[[3-fluoro-2-(methylsulfamoylamino)pyridin-4-yl]methyl]-1-methyl-6-oxopyridine-3-carboxamide]",854 nM,972 nM,123 nM,
,"COCC1(S(=O)(=O)Nc2cccc(Cc3cc(C(=O)NOC)c(Nc4ccc(I)cc4F)c(F)c3F)c2F)CC1 [E-3, 3,4-Difluoro-2-(2-fluoro-4-iodoanilino)-5-[[2-fluoro-3-[[1-(methoxymethyl)cyclopropyl]sulfonylamino]phenyl]methyl]-N-methoxybenzamide]",,,,149 µL/min/mg
,"CCS(=O)(=O)Nc1cccc(Cc2cc(C(=O)NOC(C)(C)C)c(Nc3ccc(I)cc3F)n(C)c2=O)c1F [K-9, 5-[[3-(Ethylsulfonylamino)-2-fluorophenyl]methyl]-2-(2-fluoro-4-iodoanilino)-1-methyl-N-[(2-methylpropan-2-yl)oxy]-6-oxopyridine-3-carboxamide]",,,,185 µL/min/mg
<1 µL/min/mg,"CNS(=O)(=O)Nc1nccc(Cc2c(C)c3ccc(Oc4ncccn4)cc3oc2=O)c1F [Ref-5, 3-[[3-Fluoro-2-(methylsulfamoylamino)pyridin-4-yl]methyl]-4-methyl-7-pyrimidin-2-yloxychromen-2-one, reference compound]",,,,
,"CCS(=O)(=O)Nc1nccc(Cn2cc(C(N)=O)c(Nc3ccc(I)cc3F)c(C)c2=O)c1F [P-2, 1-[[2-(ethylsulfonylamino)-3-fluoropyridin-4-yl]methyl]-4-(2-fluoro-4-iodoanilino)-5-methyl-6-oxopyridine-3-carboxamide]",,337 nM,109 nM,
,"COCC1(NS(=O)(=O)Nc2nccc(Cc3cc(C(N)=O)c(Nc4ccc(I)cc4F)c(F)c3F)c2F)CC1 [A-16, 3,4-Difluoro-2-(2-fluoro-4-iodoanilino)-5-[[3-fluoro-2-[[1-(methoxymethyl)cyclopropyl]sulfamoylamino]pyridin-4-yl]methyl]benzamide]",,,,47 µL/min/mg
